# Data taken from US9695155B2, “Herbicidal substituted pyrimidinyloxy benzene compounds” (E. I. DU PONT DE NEMOURS AND COMPANY, priority 2013, dated 2017).
# Assays:
# barnyardgrass [1] = assay: Test A preemergence; format: in vivo, Echinochloa crus-galli; settings: for Barnyardgrass plant response rating (0 to 100 scale, 0 is no effect, 100 is complete control): 125 g ai/ha; for Barnyardgrass plant response rating: 500 g ai/ha, 0 to 100 scale where 0 is no effect and 100 is complete control
# How it was run: (§1)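 Pre- and postemergence greenhouse screen. Soil: loam + sand. Spray carrier: solvent mixture, non-phytotoxic, with surfactant. Post timing at 1–2 leaves, height 2–10 cm. Readout: visual injury on a 0–100 scale roughly 10 days after application, untreated plants as reference.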
# morningglory [2] = assay: Test A preemergence; format: in vivo, Ipomoea spp.; settings: for Morningglory plant response rating (0 to 100 scale): 125 g ai/ha; for Morningglory plant response rating: 500 g ai/ha, 0 to 100 scale where 0 is no effect and 100 is complete control
# How it was run: as §1
# velvetleaf [3] = assay: Test A preemergence; format: in vivo, Abutilon theophrasti; settings: for Velvetleaf plant response rating (0 to 100 scale): 125 g ai/ha; for Velvetleaf plant response rating: 500 g ai/ha, 0 to 100 scale where 0 is no effect and 100 is complete control
# How it was run: as §1
# Heteranthera limosa = assay: Test B flooded paddy test; format: in vivo; settings: Flood, 250 g ai/ha; 0 to 100 scale where 0 is no effect and 100 is complete control
# How it was run: (§2)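 Scores from 0 (no effect) to 100 (complete control) are visual comparisons with controls, taken 13 to 15 days after compound was applied into floodwater 3 cm deep around 2-leaf plants.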
# ducksalad = assay: Test C flooded paddy test; format: in vivo, Heteranthera limosa; settings: Flood, scale 0 to 100 (0 no effect, 100 complete control), 13 to 15 days
# Text: (§3) At time of treatment, test pots were flooded to 3 cm above the soil surface, treated by application of test compounds directly to the paddy water, and then maintained at that water depth for the duration of the test. Treated plants and controls were maintained in a greenhouse for 13 to 15 days, after which time all species were compared to controls and visually evaluated. […] A dash (-) response means no test result.
# barnyardgrass [4] = assay: Test C flooded paddy test; format: in vivo, Echinochloa crus-galli; settings: Flood, scale 0 to 100 (0 no effect, 100 complete control), 13 to 15 days
# How it was run: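 Ratings were visual and made relative to untreated controls after 13 to 15 greenhouse days.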
# wheat [5] = assay: Test A preemergence; format: in vivo, Triticum aestivum; settings: for Wheat plant response rating (0 to 100 scale): 125 g ai/ha; for Wheat plant response rating: 500 g ai/ha, 0 to 100 scale where 0 is no effect and 100 is complete control
# How it was run: as §1
# sedge, umbrella [6] = assay: Test B flooded paddy test; format: in vivo, Cyperus difformis; settings: Flood, 250 g ai/ha; 0 to 100 scale where 0 is no effect and 100 is complete control
# How it was run: as §2
# large (Lg) crabgrass [7] = assay: Test A postemergence; format: in vivo, Digitaria sanguinalis; settings: 0 to 100 scale where 0 is no effect and 100 is complete control; for Crabgrass, Large plant response rating: 125 g ai/ha; for Plant response rating, Crabgrass, Large: 500 g ai/ha
# How it was run: as §1
# giant foxtail [8] = assay: Test A postemergence; format: in vivo, Setaria faberii; settings: 0 to 100 scale where 0 is no effect and 100 is complete control; for Foxtail, Giant plant response rating: 125 g ai/ha; for Plant response rating, Foxtail, Giant: 500 g ai/ha
# How it was run: as §1
# corn [9] = assay: Test A postemergence; format: in vivo, Zea mays; settings: 0 to 100 scale where 0 is no effect and 100 is complete control; for Corn plant response rating: 125 g ai/ha; for Plant response rating, Corn: 500 g ai/ha
# How it was run: as §1
# rice [10] = assay: Test C flooded paddy test; format: in vivo, Oryza sativa; settings: Flood, scale 0 to 100 (0 no effect, 100 complete control), 13 to 15 days
# Text: as §3
# barnyardgrass [11] = assay: Test B flooded paddy test; format: in vivo, Echinochloa crus-galli; settings: Flood, 250 g ai/ha; 0 to 100 scale where 0 is no effect and 100 is complete control
# How it was run: as §2
# pigweed [12] = assay: Test A postemergence; format: in vivo, Amaranthus retroflexus; settings: 0 to 100 scale where 0 is no effect and 100 is complete control; for Pigweed plant response rating: 125 g ai/ha; for Plant response rating, Pigweed: 500 g ai/ha
# How it was run: as §1
# wheat [13] = assay: Test A postemergence; format: in vivo, Triticum aestivum; settings: 0 to 100 scale where 0 is no effect and 100 is complete control; for Wheat plant response rating: 125 g ai/ha; for Plant response rating, Wheat: 500 g ai/ha
# How it was run: as §1
# rice [14] = assay: Test B flooded paddy test; format: in vivo, Oryza sativa; settings: Flood, 250 g ai/ha; 0 to 100 scale where 0 is no effect and 100 is complete control
# How it was run: as §2
# velvetleaf [15] = assay: Test A postemergence; format: in vivo, Abutilon theophrasti; settings: 0 to 100 scale where 0 is no effect and 100 is complete control; for Velvetleaf plant response rating: 125 g ai/ha; for Plant response rating, Velvetleaf: 500 g ai/ha
# How it was run: as §1
# morningglory [16] = assay: Test A postemergence; format: in vivo, Ipomoea spp.; settings: 0 to 100 scale where 0 is no effect and 100 is complete control; for Morningglory plant response rating: 125 g ai/ha; for Plant response rating, Morningglory: 500 g ai/ha
# How it was run: as §1
# sedge, umbrella [17] = assay: Test C flooded paddy test; format: in vivo, Cyperus difformis; settings: Flood, scale 0 to 100 (0 no effect, 100 complete control), 13 to 15 days
# Text: as §3
# barnyardgrass [18] = assay: Test A postemergence; format: in vivo, Echinochloa crus-galli; settings: 0 to 100 scale where 0 is no effect and 100 is complete control; for Barnyardgrass plant response rating: 125 g ai/ha; for Plant response rating, Barnyardgrass: 500 g ai/ha
# How it was run: as §1
# pigweed [19] = assay: Test A preemergence; format: in vivo, Amaranthus retroflexus; settings: for Pigweed plant response rating (0 to 100 scale): 125 g ai/ha; for Pigweed plant response rating: 500 g ai/ha, 0 to 100 scale where 0 is no effect and 100 is complete control
# How it was run: as §1
# giant foxtail [20] = assay: Test A preemergence; format: in vivo, Setaria faberii; settings: for Foxtail, Giant plant response rating (0 to 100 scale): 125 g ai/ha; for Foxtail, Giant plant response rating: 500 g ai/ha, 0 to 100 scale where 0 is no effect and 100 is complete control
# How it was run: as §1
# large (Lg) crabgrass [21] = assay: Test A preemergence; format: in vivo, Digitaria sanguinalis; settings: for Crabgrass, Large plant response rating (0 to 100 scale): 125 g ai/ha; for Crabgrass, Large plant response rating: 500 g ai/ha, 0 to 100 scale where 0 is no effect and 100 is complete control
# How it was run: as §1
# corn [22] = assay: Test A preemergence; format: in vivo, Zea mays; settings: for Corn plant response rating (0 to 100 scale): 125 g ai/ha; for Corn plant response rating: 500 g ai/ha, 0 to 100 scale where 0 is no effect and 100 is complete control
# How it was run: as §1
smiles,measurement,setting,value
FC(F)c1cccc(Oc2ncc(Cl)cn2)c1-n1cc(I)cn1 [Compound 184],"Barnyardgrass plant response rating (0 to 100 scale, 0 is no effect, 100 is complete control)",barnyardgrass [1],30
same,Barnyardgrass plant response rating,barnyardgrass [1],100
same,Morningglory plant response rating (0 to 100 scale),morningglory [2],0
same,Morningglory plant response rating,morningglory [2],90
same,Velvetleaf plant response rating (0 to 100 scale),velvetleaf [3],20
same,Velvetleaf plant response rating,velvetleaf [3],60
same,"Plant response rating, Ducksalad",Heteranthera limosa,100
same,"Plant response rating, Ducksalad",ducksalad; 31 g ai/ha,0
same,"Plant response rating, Ducksalad",ducksalad; 62 g ai/ha,30
same,"Plant response rating, Ducksalad",ducksalad; 125 g ai/ha,30
same,"Plant response rating, Ducksalad",ducksalad; 250 g ai/ha,75
same,"Plant response rating, Barnyardgrass",barnyardgrass [4]; 31 g ai/ha,0
same,"Plant response rating, Barnyardgrass",barnyardgrass [4]; 62 g ai/ha,0
same,"Plant response rating, Barnyardgrass",barnyardgrass [4]; 125 g ai/ha,0
same,"Plant response rating, Barnyardgrass",barnyardgrass [4]; 250 g ai/ha,0
same,Wheat plant response rating (0 to 100 scale),wheat [5],0
same,Wheat plant response rating,wheat [5],30
same,"Plant response rating, Sedge, Umbrella","sedge, umbrella [6]",95
same,"Crabgrass, Large plant response rating",large (Lg) crabgrass [7],70
same,"Plant response rating, Crabgrass, Large",large (Lg) crabgrass [7],80
same,"Foxtail, Giant plant response rating",giant foxtail [8],70
same,"Plant response rating, Foxtail, Giant",giant foxtail [8],80
same,Corn plant response rating,corn [9],20
same,"Plant response rating, Corn",corn [9],70
same,"Plant response rating, Rice",rice [10]; 31 g ai/ha,0
same,"Plant response rating, Rice",rice [10]; 62 g ai/ha,0
same,"Plant response rating, Rice",rice [10]; 125 g ai/ha,0
same,"Plant response rating, Rice",rice [10]; 250 g ai/ha,0
same,"Plant response rating, Barnyardgrass",barnyardgrass [11],0
same,Pigweed plant response rating,pigweed [12],100
same,"Plant response rating, Pigweed",pigweed [12],100
same,Wheat plant response rating,wheat [13],30
same,"Plant response rating, Wheat",wheat [13],90
same,"Plant response rating, Rice",rice [14],10
same,Velvetleaf plant response rating,velvetleaf [15],80
same,"Plant response rating, Velvetleaf",velvetleaf [15],90
same,Morningglory plant response rating,morningglory [16],60
same,"Plant response rating, Morningglory",morningglory [16],90
same,"Plant response rating, Sedge, Umbrella","sedge, umbrella [17]; 31 g ai/ha",0
same,"Plant response rating, Sedge, Umbrella","sedge, umbrella [17]; 62 g ai/ha",0
same,"Plant response rating, Sedge, Umbrella","sedge, umbrella [17]; 125 g ai/ha",50
same,"Plant response rating, Sedge, Umbrella","sedge, umbrella [17]; 250 g ai/ha",75
same,Barnyardgrass plant response rating,barnyardgrass [18],60
same,"Plant response rating, Barnyardgrass",barnyardgrass [18],90
same,Pigweed plant response rating (0 to 100 scale),pigweed [19],100
same,Pigweed plant response rating,pigweed [19],100
same,"Foxtail, Giant plant response rating (0 to 100 scale)",giant foxtail [20],100
same,"Foxtail, Giant plant response rating",giant foxtail [20],100
same,"Crabgrass, Large plant response rating (0 to 100 scale)",large (Lg) crabgrass [21],100
same,"Crabgrass, Large plant response rating",large (Lg) crabgrass [21],100
same,Corn plant response rating (0 to 100 scale),corn [22],20
same,Corn plant response rating,corn [22],20
COc1cnc(Oc2ccccc2-n2cc(Br)cn2)nc1 [Compound 234],"Barnyardgrass plant response rating (0 to 100 scale, 0 is no effect, 100 is complete control)",barnyardgrass [1],20
same,Barnyardgrass plant response rating,barnyardgrass [1],100
same,Morningglory plant response rating (0 to 100 scale),morningglory [2],0
same,Morningglory plant response rating,morningglory [2],100
same,Velvetleaf plant response rating (0 to 100 scale),velvetleaf [3],40
same,Velvetleaf plant response rating,velvetleaf [3],100
same,"Plant response rating, Ducksalad",Heteranthera limosa,90
same,"Plant response rating, Ducksalad",ducksalad; 31 g ai/ha,0
same,"Plant response rating, Ducksalad",ducksalad; 62 g ai/ha,0
same,"Plant response rating, Ducksalad",ducksalad; 125 g ai/ha,0
same,"Plant response rating, Ducksalad",ducksalad; 250 g ai/ha,30
same,"Plant response rating, Barnyardgrass",barnyardgrass [4]; 31 g ai/ha,0
same,"Plant response rating, Barnyardgrass",barnyardgrass [4]; 62 g ai/ha,0
same,"Plant response rating, Barnyardgrass",barnyardgrass [4]; 125 g ai/ha,0
same,"Plant response rating, Barnyardgrass",barnyardgrass [4]; 250 g ai/ha,0
same,Wheat plant response rating (0 to 100 scale),wheat [5],0
same,Wheat plant response rating,wheat [5],0
same,"Plant response rating, Sedge, Umbrella","sedge, umbrella [6]",90
same,"Crabgrass, Large plant response rating",large (Lg) crabgrass [7],20
same,"Plant response rating, Crabgrass, Large",large (Lg) crabgrass [7],60
same,"Foxtail, Giant plant response rating",giant foxtail [8],30
same,"Plant response rating, Foxtail, Giant",giant foxtail [8],70
same,Corn plant response rating,corn [9],20
same,"Plant response rating, Corn",corn [9],30
same,"Plant response rating, Rice",rice [10]; 31 g ai/ha,0
same,"Plant response rating, Rice",rice [10]; 62 g ai/ha,0
same,"Plant response rating, Rice",rice [10]; 125 g ai/ha,0
same,"Plant response rating, Rice",rice [10]; 250 g ai/ha,0
same,"Plant response rating, Barnyardgrass",barnyardgrass [11],20
same,Pigweed plant response rating,pigweed [12],100
same,"Plant response rating, Pigweed",pigweed [12],100
same,Wheat plant response rating,wheat [13],20
same,"Plant response rating, Wheat",wheat [13],20
same,"Plant response rating, Rice",rice [14],20
same,Velvetleaf plant response rating,velvetleaf [15],70
same,"Plant response rating, Velvetleaf",velvetleaf [15],100
same,Morningglory plant response rating,morningglory [16],40
same,"Plant response rating, Morningglory",morningglory [16],60
same,"Plant response rating, Sedge, Umbrella","sedge, umbrella [17]; 31 g ai/ha",0
same,"Plant response rating, Sedge, Umbrella","sedge, umbrella [17]; 62 g ai/ha",0
same,"Plant response rating, Sedge, Umbrella","sedge, umbrella [17]; 125 g ai/ha",0
same,"Plant response rating, Sedge, Umbrella","sedge, umbrella [17]; 250 g ai/ha",40
same,Barnyardgrass plant response rating,barnyardgrass [18],20
same,"Plant response rating, Barnyardgrass",barnyardgrass [18],70
same,Pigweed plant response rating (0 to 100 scale),pigweed [19],90
same,Pigweed plant response rating,pigweed [19],100
same,"Foxtail, Giant plant response rating (0 to 100 scale)",giant foxtail [20],60
same,"Foxtail, Giant plant response rating",giant foxtail [20],90
same,"Crabgrass, Large plant response rating (0 to 100 scale)",large (Lg) crabgrass [21],90
same,"Crabgrass, Large plant response rating",large (Lg) crabgrass [21],100
same,Corn plant response rating (0 to 100 scale),corn [22],0
same,Corn plant response rating,corn [22],90
